From patent US9296754B2, “Compounds and compositions for the treatment of parasitic diseases” (Novartis AG, priority 2013, dated 2016)

What was measured:
[1] = test system: Leishmania donovani axenic amastigote parasites; experiment: Leishmania donovani axenic amastigote proliferation assay (Cell TiterGlo luminescence); assay type: cell-based; details: 48 h, axenic amastigotes, 2 day incubation, read-out: L. donovani amastigotes EC50
Procedure: Leishmania donovani Axenic Amastigote Proliferation Assay […] At the same time control compounds and DMSO are added to plates to serve as the positive and negative controls, respectively. 40 μL of parasite culture (9600 parasites) are then added to the plate wells. The plates are then placed into incubators. After 2 day incubation, 20 μL of Cell TiterGlo (Promega) is added to the plate wells. The luminescence signal of each well is measured using the Envision reader (Perkin Elmer).

[2] = test system: Trypanosoma brucei Lister 427 strain, bloodstream form; experiment: Proliferation of Trypanosoma brucei (Cell Titer Glo); assay type: cell-based; details: 48 hours, read-out: T. brucei EC50
Text: Assay for Proliferation of Kinetoplastid Parasite Trypanosoma brucei. The proliferation is quantified by the addition of Cell Titer Glo (Promega®) a luminescent cell viability assay that measures the number of viable cells in culture based on the quantification of cellular ATP amount, which is an indicator of metabolically active cells. The following assay illustrates the invention without in any way limiting the scope of the invention. This parasite proliferation assay measures the increase in parasite growth using an assay that measures ATP activity, Cell Titer Glo®. […] Then 25 μl of a suspension of T. brucei culture in HMI-9 media is dispensed into the assay plates. […] The plates are then read for luminescence.

EC50 [1]: 4200 nM
EC50 [2]: 479 nM
SMILES: CON(C)C(=O)Nc1cccc(-c2cn3cc(NC(=O)OC(C)C)cnc3n2)c1 [Compound 14, propan-2-yl N-[2-(3-{[methoxy(methyl)carbamoyl]amino}phenyl)imidazo[1,2-a]pyrimidin-6-yl]carbamate]
